Source: patent US20060069132A1, “Azolecarboxamide herbicides” (priority 2004, published 2006)

Assays:
morningglory [1] = assay: Test B pre-/postemergence herbicide test; assay type: in vivo, Ipomoea coccinea; details: for Plant response rating, Morningglory: preemergence; for Morningglory plant response rating: postemergence, visual rating, scale 0 (no effect) to 100 (complete control)
Procedure, shortened: (§1)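 Visual rating, 0 (no effect) to 100 (complete control), versus untreated controls after 13–15 d in greenhouse. Pre- and postemergence applications (postemergence plants 2–18 cm, 1–4 leaves); flooded paddy arm at 2-leaf stage. Compounds in non-phytotoxic solvent plus surfactant.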

redroot pigweed = assay: Test A pre-/postemergence herbicide test; assay type: in vivo, Amaranthus retroflexus
Procedure, shortened: (§2)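 Visual injury rating on a 0–100 scale (0 no effect, 100 complete control) versus untreated controls, about ten days after treatment in greenhouse. Pre: directed soil spray onto seeded sandy loam. Post: spray to runoff on plants 2–10 cm tall at one- to two-leaf stage.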

rice [2] = assay: Test B pre-/postemergence herbicide test; assay type: in vivo, Oryza sativa; details: preemergence
Procedure, shortened: (§3)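 Test chemicals in a non-phytotoxic solvent mixture with surfactant were applied preemergence to seeded species and postemergence to plants 2-18 cm tall (1- to 4-leaf stage); rice and barnyardgrass were also tested in a flooded paddy at the 2-leaf stage. Visual rating versus controls after 13-15 days in greenhouse, scale 0 (no effect) to 100 (complete control).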

morningglory [3] = assay: Test A pre-/postemergence herbicide test; assay type: in vivo, Ipomoea spp.
Procedure, shortened: as §2

wild oat = assay: Test B postemergence herbicide test; assay type: in vivo, Avena fatua; details: postemergence, visual rating, scale 0 (no effect) to 100 (complete control)
Procedure, shortened: (§4)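 After treating 2-leaf paddy plants or 2–18 cm postemergence plants (1 to 4 leaves) with formulated chemical, researchers kept them in a greenhouse for 13–15 days. Effects were judged visually versus controls: 0 indicates none, 100 total control.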

pigweed = assay: Test B pre-/postemergence herbicide test; assay type: in vivo, Amaranthus retroflexus; details: for Plant response rating, Pigweed: preemergence; for Pigweed plant response rating: postemergence, visual rating, scale 0 (no effect) to 100 (complete control)
Procedure, shortened: as §3

cocklebur = assay: Test B pre-/postemergence herbicide test; assay type: in vivo, Xanthium strumarium; details: for Plant response rating, Cocklebur: preemergence; for Cocklebur plant response rating: postemergence, visual rating, scale 0 (no effect) to 100 (complete control)
Procedure, shortened: as §1

ducksalad = assay: Test B flooded paddy test; assay type: in vivo, Heteranthera limosa; details: 1000 g ai/ha, visual rating, scale 0 to 100 (0 no effect, 100 complete control), 13 to 15 days
Procedure, shortened: (§5)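 Visual ratings, 0 (no effect) to 100 (complete control), made versus controls after 13–15 d greenhouse. Paddy plants treated at 2-leaf stage; postemergence plants at 1- to 4-leaf stage, 2–18 cm tall.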

large crabgrass [4] = assay: Test A pre-/postemergence herbicide test; assay type: in vivo, Digitaria sanguinalis
Procedure, shortened: as §2

barnyardgrass [5] = assay: Test A pre-/postemergence herbicide test; assay type: in vivo, Echinochloa crus-galli
Procedure, shortened: as §2

velvetleaf [6] = assay: Test B pre-/postemergence herbicide test; assay type: in vivo, Abutilon theophrasti; details: for Plant response rating, Velvetleaf: preemergence; for Velvetleaf plant response rating: postemergence, visual rating, scale 0 (no effect) to 100 (complete control)
Procedure, shortened: as §3

lambsquarters = assay: Test B pre-/postemergence herbicide test; assay type: in vivo, Chenopodium album; details: for Plant response rating, Lambsquarters: preemergence; for Lambsquarters plant response rating: postemergence, visual rating, scale 0 (no effect) to 100 (complete control)
Procedure, shortened: as §3

blackgrass = assay: Test B postemergence herbicide test; assay type: in vivo, Alopecurus myosuroides; details: postemergence, visual rating, scale 0 (no effect) to 100 (complete control)
Procedure, shortened: as §5

wheat = assay: Test B postemergence herbicide test; assay type: in vivo, Triticum aestivum; set-up: key to Wheat plant response rating: 0 = no effect, 100 = complete control; details: postemergence, 500 g ai/ha; visual rating, scale 0 (no effect) to 100 (complete control)
Procedure, shortened: as §4

rice [7] = assay: Test B flooded paddy test; assay type: in vivo, Oryza sativa; details: 1000 g ai/ha, visual rating, scale 0 to 100 (0 no effect, 100 complete control), 13 to 15 days
Procedure, shortened: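 Paddy species grown to the 2-leaf stage under flooding; blackgrass sprayed postemergence at 2–18 cm (1- to 4-leaf stage). Plants kept in a greenhouse for 13 to 15 days, then visually rated against controls on 0 (no effect) to 100 (complete control).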

velvetleaf [8] = assay: Test A pre-/postemergence herbicide test; assay type: in vivo, Abutilon theophrasti
Procedure, shortened: as §2

large crabgrass [9] = assay: Test B pre-/postemergence herbicide test; assay type: in vivo, Digitaria sanguinalis; details: for Plant response rating, Crabgrass, Large: preemergence; for Crabgrass, Large plant response rating: postemergence, visual rating, scale 0 (no effect) to 100 (complete control)
Procedure, shortened: as §3

barnyardgrass [10] = assay: Test B pre-/postemergence herbicide test; assay type: in vivo, Echinochloa crus-galli; details: for Plant response rating, Barnyardgrass: preemergence; for Barnyardgrass plant response rating: postemergence, visual rating, scale 0 (no effect) to 100 (complete control)
Procedure, shortened: as §1

giant foxtail [11] = assay: Test A pre-/postemergence herbicide test; assay type: in vivo, Setaria faberi
Procedure, shortened: as §2

[12] = tested on: small flower umbrella sedge; assay: Test B flooded paddy test; assay type: in vivo, Cyperus difformis; details: 1000 g ai/ha, visual rating, scale 0 to 100 (0 no effect, 100 complete control), 13 to 15 days
Procedure, shortened: as §5

giant foxtail [13] = assay: Test B pre-/postemergence herbicide test; assay type: in vivo, Setaria faberi; details: for Plant response rating, Foxtail, Giant: preemergence; for Foxtail, Giant plant response rating: postemergence, visual rating, scale 0 (no effect) to 100 (complete control)
Procedure, shortened: as §3

corn = assay: Test B pre-/postemergence herbicide test; assay type: in vivo, Zea mays; details: for Plant response rating, Corn: preemergence; for Corn plant response rating: postemergence, visual rating, scale 0 (no effect) to 100 (complete control)
Procedure, shortened: as §3

barnyardgrass [14] = assay: Test B flooded paddy test; assay type: in vivo, Echinochloa crus-galli; details: 1000 g ai/ha, visual rating, scale 0 to 100 (0 no effect, 100 complete control), 13 to 15 days
Procedure, shortened: as §5

Surinam grass = assay: Test B pre-/postemergence herbicide test; assay type: in vivo, Urochloa decumbens; details: for Plant response rating, Surinam Grass: preemergence; for Surinam Grass plant response rating: postemergence, visual rating, scale 0 (no effect) to 100 (complete control)
Procedure, shortened: as §3

[15] = 500 g ai/ha, visual rating 0-100, 0 no effect, 100 complete control
[16] = 125 g ai/ha, 0 to 100 scale, 0 is no effect, 100 is complete control
[17] = Postemergence, 500 g ai/ha, 0 to 100 scale, 0 no effect, 100 complete control
[18] = Postemergence, 2000 g ai/ha, 0 to 100 scale, 0 no effect, 100 complete control
[19] = Preemergence, 2000 g ai/ha, visual rating, 0 to 100 scale (0 no effect, 100 complete control)
[20] = preemergence, 500 g ai/ha, visual injury, 0 to 100 scale (0 no effect, 100 complete control)
[21] = Preemergence, 500 g ai/ha, visual rating, 0 to 100 scale (0 no effect, 100 complete control)

## CCn1nc(C(C)(C)C)cc1C(=O)Nc1nccc(OC)n1 [Compound 165]
Morningglory [1]; [15]
  Plant response rating, Morningglory: 0
Morningglory [1]; 125 g ai/ha
  Morningglory plant response rating: 0
Morningglory [1]; 500 g ai/ha
  Morningglory plant response rating: 0
Morningglory [1]; [16]
  Plant response rating, Morningglory: 0
Redroot pigweed; [17]
  Pigweed plant response rating: 0
Redroot pigweed; [18]
  Plant response rating, Pigweed: 5
Redroot pigweed; [19]
  Pigweed plant response rating: 20
Redroot pigweed; [20]
  Pigweed plant response rating: 0
Rice [2]; [15]
  Plant response rating, Rice: 0
Rice [2]; [16]
  Plant response rating, Rice: 0
Morningglory [3]; [17]
  Morningglory plant response rating: 5
Morningglory [3]; [18]
  Plant response rating, Morningglory: 5
Morningglory [3]; [21]
  Morningglory plant response rating: 0
Morningglory [3]; [19]
  Morningglory plant response rating: 0
Wild oat; 125 g ai/ha
  Oat, Wild plant response rating: 0
Wild oat; 500 g ai/ha
  Oat, Wild plant response rating: 0
pigweed; [15]
  Plant response rating, Pigweed: 0
pigweed; 125 g ai/ha
  Pigweed plant response rating: 0
pigweed; 500 g ai/ha
  Pigweed plant response rating: 0
pigweed; [16]
  Plant response rating, Pigweed: 0
cocklebur; [15]
  Plant response rating, Cocklebur: 0
cocklebur; 125 g ai/ha
  Cocklebur plant response rating: 0
cocklebur; 500 g ai/ha
  Cocklebur plant response rating: 0
cocklebur; [16]
  Plant response rating, Cocklebur: 0
ducksalad
  Ducksalad plant response rating: 0
Large crabgrass [4]; [17]
  Crabgrass, Large plant response rating: 0
Large crabgrass [4]; [18]
  Plant response rating, Crabgrass, Large: 0
Large crabgrass [4]; [21]
  Crabgrass, Large plant response rating: 0
Large crabgrass [4]; [19]
  Crabgrass, Large plant response rating: 0
Barnyardgrass [5]; [17]
  Barnyardgrass plant response rating: 0
Barnyardgrass [5]; [18]
  Plant response rating, Barnyardgrass: 0
Barnyardgrass [5]; [21]
  Barnyardgrass plant response rating: 0
Barnyardgrass [5]; [19]
  Barnyardgrass plant response rating: 0
Velvetleaf [6]; [15]
  Plant response rating, Velvetleaf: 0
Velvetleaf [6]; 125 g ai/ha
  Velvetleaf plant response rating: 0
Velvetleaf [6]; 500 g ai/ha
  Velvetleaf plant response rating: 0
Velvetleaf [6]; [16]
  Plant response rating, Velvetleaf: 0
lambsquarters; [15]
  Plant response rating, Lambsquarters: 0
lambsquarters; 125 g ai/ha
  Lambsquarters plant response rating: 0
lambsquarters; 500 g ai/ha
  Lambsquarters plant response rating: 0
lambsquarters; [16]
  Plant response rating, Lambsquarters: 0
blackgrass; 125 g ai/ha
  Blackgrass plant response rating: 0
blackgrass; 500 g ai/ha
  Blackgrass plant response rating: 0
wheat
  Wheat plant response rating: 0
Rice [7]
  Rice plant response rating: 0
Velvetleaf [8]; [17]
  Velvetleaf plant response rating: 10
Velvetleaf [8]; [18]
  Plant response rating, Velvetleaf: 20
Velvetleaf [8]; [19]
  Velvetleaf plant response rating: 5
Velvetleaf [8]; [20]
  Velvetleaf plant response rating: 0
Large crabgrass [9]; [15]
  Plant response rating, Crabgrass, Large: 0
Large crabgrass [9]; 125 g ai/ha
  Crabgrass, Large plant response rating: 0
Large crabgrass [9]; 500 g ai/ha
  Crabgrass, Large plant response rating: 0
Large crabgrass [9]; [16]
  Plant response rating, Crabgrass, Large: 0
Barnyardgrass [10]; [15]
  Plant response rating, Barnyardgrass: 0
Barnyardgrass [10]; 125 g ai/ha
  Barnyardgrass plant response rating: 0
Barnyardgrass [10]; 500 g ai/ha
  Barnyardgrass plant response rating: 0
Barnyardgrass [10]; [16]
  Plant response rating, Barnyardgrass: 0
Giant foxtail [11]; [17]
  Foxtail, Giant plant response rating: 0
Giant foxtail [11]; [18]
  Plant response rating, Foxtail, Giant: 0
Giant foxtail [11]; [21]
  Foxtail, Giant plant response rating: 0
Giant foxtail [11]; [19]
  Foxtail, Giant plant response rating: 0
[12]
  Sedge, Umbrella plant response rating: 0
Giant foxtail [13]; [15]
  Plant response rating, Foxtail, Giant: 0
Giant foxtail [13]; 125 g ai/ha
  Foxtail, Giant plant response rating: 0
Giant foxtail [13]; 500 g ai/ha
  Foxtail, Giant plant response rating: 0
Giant foxtail [13]; [16]
  Plant response rating, Foxtail, Giant: 0
corn; [15]
  Plant response rating, Corn: 0
corn; 125 g ai/ha
  Corn plant response rating: 0
corn; 500 g ai/ha
  Corn plant response rating: 0
corn; [16]
  Plant response rating, Corn: 0
Barnyardgrass [14]
  Barnyardgrass plant response rating: 0
Surinam grass; [15]
  Plant response rating, Surinam Grass: 0
Surinam grass; 125 g ai/ha
  Surinam Grass plant response rating: 0
Surinam grass; 500 g ai/ha
  Surinam Grass plant response rating: 0
Surinam grass; [16]
  Plant response rating, Surinam Grass: 0
